Experimental data: US20110195845A1, “Constructs for Expressing Herbicide Tolerance Genes, Related Plants, and Related Trait Combinations” (Dow AgroSciences LLC, priority 2008, published 2011)

Tests used:
[1] = tested on: NT-1 tobacco suspension cells treated with PAT (pDAB3779); assay: NT-1 tobacco cell transformation, selection on bialaphos; format: cell-based; conditions: % of selection plates with at least one PCR positive isolate
Description: (§1) Four days prior to transformation, a 1 week old NT-1 tobacco suspension, which was being subcultured every 7 days, was subcultured to fresh medium by adding 2 ml of the NT-1 culture or 1 ml of packed cells into 40 ml NT-1 B media. The subcultured suspension was maintained in the dark at 25±1° C. on a shaker at 125 rpm.
(§2) A 50% glycerol stock of Agrobacterium tumefaciens [strain LBA4404] harboring a binary vector of interest was used to initiate a liquid overnight culture by adding 20, 100, or 500 μl to 30 ml YEP liquid (10 g/L yeast extract, 10 g/L Peptone, 5 g/L NaCl, 0-10 g/L Sucrose) containing 50-100 mg/L spectinomycin. The bacterial culture was incubated in the dark at 28° C. in an incubator shaker at 150-250 rpm until the OD600 was 1.5+0.2. This took approximately 18-20 hrs.
For each vector tested, 20-70 mL of 4-day old suspension cells were transferred into a sterile vessel, to which 500-1750 μl of Agrobacterium suspension at the proper OD was added. To ensure a uniform mixture was achieved, the cells were pipetted up and down 5 times with a 10 ml wide-bore pipet. The uniform suspension was then drawn up into a 25 ml barrel of a repeat pipetter and 250 μl of the suspension was dispensed per well into 24-well plates, continuing until the suspension was exhausted. […]

[2] = tested on: NT-1 tobacco suspension cells treated with DSM-2 (v2) (pDAB3778); assay: NT-1 tobacco cell transformation, selection on bialaphos or glufosinate ammonium; format: cell-based; conditions: for Transformation Frequency on 10 mg/L Bialaphos following PCR Verification: % of selection plates with at least one PCR positive isolate
Description: as §1, §2
For each vector tested, 20-70 mL of 4-day old suspension cells were transferred into a sterile vessel, to which 500-1750 μl of Agrobacterium suspension at the proper OD was added. To ensure a uniform mixture was achieved, the cells were pipetted up and down 5 times with a 10 ml wide-bore pipet. The uniform suspension was then drawn up into a 25 ml barrel of a repeat pipetter and 250 μl of the suspension was dispensed per well into 24-well plates, continuing until the suspension was exhausted. The well plates were wrapped in parafilm and cultured in the dark at 25±1° C. without shaking for a 3 day co-cultivation.
Following the co-cultivation, all excess liquid was removed from the individual wells with a 1 mL pipet tip, and remaining cells were resuspended in 1 ml NTC liquid (NT-1 B medium containing 500 mg/L carbenicillin, added after autoclaving). The contents of an individual well were dispersed across the entire surface of 100×25 mm selection plates using disposable transfer pipets. Selection media consisted of NTC media solidified with 8 g/l TC agar supplemented with 7.5 to 15 mg/L bialaphos or technical grade glufosinate ammonium, added after autoclaving. All selection plates, left unwrapped, were maintained in the dark at 28° C.
Putative transformants appeared as small clusters of callus on a background of dead, non-transformed cells. Calli were isolated approximately 2-6 weeks post-transformation. Each callus isolate was transferred to its own 60×20 mm plate containing the same selection medium and allowed to grow for approximately 2 weeks before being submitted for analysis.

C[C@H](NC(=O)[C@H](C)NC(=O)[C@@H](N)CCP(C)(=O)O)C(=O)O [Bialaphos] was tested, and the “Transformation Frequency on 10 mg/L Bialaphos following PCR Verification” value [1] was 100%, the “Transformation Frequency on 10 mg/L Bialaphos following PCR Verification” value ([1]; listed as bialaphos) was 100% and the “Transformation frequency (% of selection plates producing at least one callus) after coding region PCR” value ([2]; 7.5 mg/L selection agent) was 38.9%. The “Transformation Frequency on 10 mg/L Bialaphos following PCR Verification” value [2] was 79%, the “Transformation Frequency on 10 mg/L Bialaphos following PCR Verification” value ([2]; listed as bialaphos) was 79% and the “Transformation frequency (% of selection plates producing at least one callus) after coding region PCR” value ([2]; 10 mg/L selection agent) was 44.4%. For the same compound, the “Transformation frequency (% of selection plates producing at least one callus) after coding region PCR” value ([2]; 12.5 mg/L selection agent) was 38.9% and the “Transformation frequency (% of selection plates producing at least one callus) after coding region PCR” value ([2]; 15 mg/L selection agent) was 22.2%.
